According to patent publication US9776972B2, “Pyrazole derivatives as arginine methyltransferase inhibitors and uses thereof” (priority 2013, dated 2017):
pIC50: −log10 of the molar value.

Target: human PRMT8 (Homo sapiens, UniProt Q9NR22)
Test: PRMT8 Biochemical Assay (3H-SAM Flashplate, peptide substrate)
Conditions: single experiment or average of multiple experiments
Outline: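 Methylation of a biotin-tagged histone H4 peptide (residues 31-45) by recombinant PRMT8 was measured as 3H transfer from 3H-SAM, after a 30 min room-temperature compound preincubation in Bicine buffer pH 7.6. Reactions were quenched with unlabelled SAM to 400 uM final, then bound counts were read by streptavidin Flashplate. IC50 came from a Hill fit of % inhibition relative to max and SAH min controls.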

human PRMT8, sequence (Q9NR22 whole entry): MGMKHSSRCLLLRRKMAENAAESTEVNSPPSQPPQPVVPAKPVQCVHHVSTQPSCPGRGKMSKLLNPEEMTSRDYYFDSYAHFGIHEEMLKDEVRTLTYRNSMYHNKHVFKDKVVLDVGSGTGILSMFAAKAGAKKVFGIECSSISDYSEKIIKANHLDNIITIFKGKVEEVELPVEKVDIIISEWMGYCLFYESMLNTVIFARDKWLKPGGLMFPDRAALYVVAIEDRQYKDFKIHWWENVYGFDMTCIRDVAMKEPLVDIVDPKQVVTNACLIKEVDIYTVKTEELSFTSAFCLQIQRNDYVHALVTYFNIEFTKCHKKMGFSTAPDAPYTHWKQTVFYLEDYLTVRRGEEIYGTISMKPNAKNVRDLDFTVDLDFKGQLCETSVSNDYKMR

| pIC50 | SMILES |
| --- | --- |
| 6.02 | CN(CCN)Cc1cn(C)nc1-c1ccc(F)cc1 [Compound 3] |
| 5.38 | COCCn1cc(CN(C)CCN)c(-c2ccc(F)cc2)n1 [Compound 5] |
| 6.40 | CCN(CCNC)Cc1c[nH]nc1-c1ccc(F)cc1 [Compound 9] |
| 6.16 | CNCCN(C)Cc1cnn(C)c1-c1ccc(F)cc1 [Compound 10] |
| 6.22 | CNCCN(C)Cc1c[nH]nc1-c1cccc(OC(F)(F)F)c1 [Compound 39] |
| 5.66 | CNCCN(C)Cc1c[nH]nc1-c1ccccc1F [Compound 48] |
| 5.69 | CN(CCN)Cc1n[nH]cc1-c1ccc(F)cc1 [Compound 69] |
| 5.60 | CN(CCN)Cc1c[nH]nc1-c1cccc(C#N)c1 [Compound 70] |
| 6.46 | CN(CCN)Cc1c[nH]nc1-c1cccc(F)c1 [Compound 71] |
| 5.43 | CN(CCN)Cc1c[nH]nc1-c1ccccc1F [Compound 72] |
| 6.02 | CN(CCN)Cc1c[nH]nc1-c1ccccc1 [Compound 73] |
| 6.73 | CN(CCN)Cc1c[nH]nc1-c1ccc(C(C)(C)C)cc1 [Compound 74] |
| 5.60 | CC(C)N(CCN)Cc1c[nH]nc1-c1ccc(F)cc1 [Compound 75] |
| 5.83 | NCCN(Cc1c[nH]nc1-c1ccc(F)cc1)C1CC1 [Compound 78] |
| 5.46 | CN(CCN)Cc1cnn(C2COC2)c1-c1ccc(F)cc1 [Compound 81] |
| 5.61 | CN(CCN)Cc1c[nH]nc1-c1ccc(N2CCNCC2)cc1 [Compound 82] |
| 6.15 | CN(CCN)Cc1nn(C)cc1-c1ccc(C#N)cc1 [Compound 83] |
| 6.13 | CN(CCN)Cc1c[nH]nc1-c1ccc(Cl)cc1Cl [Compound 86] |
| 5.51 | COc1ccc(-c2n[nH]cc2CN(C)CCN)c(OC)c1 [Compound 87] |
| 5.72 | Cc1ccc(-c2n[nH]cc2CN(C)CCN)c(C)c1 [Compound 88] |
| 5.76 | CN(CCN)Cc1c[nH]nc1-c1ccc(F)cc1Cl [Compound 89] |
| 5.86 | Cc1ccc(-c2n[nH]cc2CN(C)CCN)c(Cl)c1 [Compound 90] |
| 5.16 | Cc1ccc(Cl)c(-c2n[nH]cc2CN(C)CCN)c1 [Compound 91] |
| 6.82 | CN(CCN)Cc1c[nH]nc1-c1ccc(C(F)(F)F)cc1 [Compound 92] |
| 7.12 | CN(CCN)Cc1c[nH]nc1-c1ccc(OC(F)(F)F)cc1 [Compound 93] |
| 6.70 | CN(CCN)Cc1c[nH]nc1-c1ccc(OC(F)F)cc1 [Compound 94] |
| 6.68 | CN(CCN)Cc1c[nH]nc1-c1ccc(Cl)cc1 [Compound 95] |

| SMILES | pIC50 |
| --- | --- |
| CN(CCN)Cc1cnn(C)c1-c1ccc(F)cc1 [Compound 4] | 5.61 |
| CNCCN(C)Cc1c[nH]nc1-c1cccc(N)c1 [Compound 32] | 5.81 |
| CNCCN(C)Cc1c[nH]nc1-c1ccc(CC#N)cc1 [Compound 34] | 6.11 |
| CNCCN(C)Cc1c[nH]nc1-c1ccccc1O [Compound 35] | 4.61 |
| CNCCN(C)Cc1c[nH]nc1-c1ccccc1NS(C)(=O)=O [Compound 41] | 4.40 |
| CNCCN(C)Cc1c[nH]nc1-c1cccc(NC(C)=O)c1 [Compound 42] | 5.81 |
| CNCCN(C)Cc1c[nH]nc1-c1cccc(C(C)=O)c1 [Compound 44] | 6.28 |
| CNCCN(C)Cc1c[nH]nc1-c1ccc(-c2ccccc2)cc1 [Compound 47] | 7.04 |
| CN(CCN)Cc1cn(C2COC2)nc1-c1ccc(F)cc1 [Compound 77] | 5.78 |
| CN(CCN)Cc1c[nH]nc1-c1ccc(C(F)(F)F)cc1C(F)(F)F [Compound 85] | 5.37 |
